{"source": "patent US9879058B2", "about": "“Use of compounds that selectively modulate astrocytic release of substances through hemichannels of connexins and pannexins, without influencing gap junctions, for the treatment of psychiatric disorders” (Universidad Andres Bello, priority 2012, dated 2018)", "key": {"Sprague Dowley rats [1]": {"tested_on": "Sprague Dowley rats", "test": "Contextual fear conditioning after intravenous injection", "assay_type": "in vivo, rat", "conditions": "10 minutes before training, 10 μM in the blood stream", "experimental": "A. Animals: All procedures involving animals were in accordance to NIH guidelines. Sprague Dowley rats (˜60 d old, ˜250 g) were caged individually at 22° C., 12/12 h light/dark cycle. The rats remained in their home box throughout the study, and were removed only briefly for drug microinfusions. B. Drugs: Cacotheline (Pharmeks Ltd. Moscow, Russia) was dissolved in sterile saline to yield a final solution of 10 μM in the blood stream. As a control, only sterile saline injection of equal volume was used. Cacotheline was injected into the caudal vein under 4% isofluorane anesthesia. C. Apparatus: All behavioral essays were performed in a sound attenuating cubicle. Conditioning and testing were conducted in the same chamber. For conditioning, rats were placed in a Plexiglas chamber with a metal grid floor (40 cm×40 cm×40 cm). The chamber was dimly illuminated by a red light. A video camera was mounted at the top of each chamber to allow digital recording throughout the experiments. D. Behavioral procedures: The conditioning is based on the animal learning that a previously neutral stimulus (a conditioned stimulus, CS; e.g. a context) becomes predictive of a stressful stimulus (unconditioned stimulus, US; e.g. footshock). […] During the test, total seconds of freezing (immobility) were calculated for each rat when exposed to the conditioned context for 5 minutes without the footshock. […]"}, "Sprague Dowley rats [2]": {"tested_on": "Sprague Dowley rats", "test": "Openfield test", "assay_type": "in vivo, rat", "conditions": "for time in the center of the openfield (thigmotaxis): cacotheline 10 μM", "experimental": "A. Animals: All procedures involving animals were in accordance to NIH guidelines and with approval of the bioethical committee of the Universidad Andrés Bello. Sprague Dowley rats (˜60 d old, ˜250 g) were caged individually at 22° C., 12/12 h light/dark cycle. The rats remained in their home box throughout the study, and were removed only briefly for drug microinfusions. B. Drugs: For intra hippocampal microinjections Gap19 ([…] (SEQ ID NO: 3), LifeTein, South Plainfield, N.J., USA, >90% purity) was dissolved in PBS to yield a final solution of 100 μM and cacotheline was dissolved in sterile saline to a final concentration of 10 μM. For intravenous injections, cacotheline was dissolved to a final concentration of 10 μM in the blood stream, assuming circulating blood as 7% of body weight. Cacotheline was injected into the caudal vein under 4% isofluorane gas anesthesia. In a control group of rats sterile saline injection of equal volume was injected. C. Dye uptake: Gap junction permeability was determined at room temperature using the scrape-loading/dye transfer (SL/DT) technique, Hela cells were incubated with Carboxy-fluorescin (1 mg/ml) in the same Ca2+ free HEPES-buffered salt solution as above, then the test compound was added, followed byscrape-loading, which was performed with a razor blade. After 3 minutes the cells are washed with HEPES-buffered salt solution and mounted in Fluoromount and examined by epifluorescence. D. Apparatus: All behavioral essays were performed in an openfield made of Plexiglas (60 cm×40 cm) or a dark/light exploration box (70×40 cm; light compartment 40×40 cm, dark compartment 30×40 cm), illuminated by a white light bulb. A video camera was mounted at the top of the chamber to allow digital recording throughout the experiments. E. Surgery and histology: Under ketamine/xylazine anesthesia ([…], respectively), rats were stereotaxically implanted with bilateral 22-gauge stainless steel cannulas aimed 1.0 mm above the ventral hippocampus (5.0 mm posterior to Bregma, 5.0 mm lateral to the midline, and 6.0 mm ventral to the skull surface (Paxinos, G., Watson, C. (1998). The Rat Brain in Stereotaxic Coordinates; Press A, editor, San Diego). The cannulas were fixed with acrylic dental cement and secured by 4 skull screws. A stylus was placed inside the guide cannula to prevent clogging. Rats were given at least 7 days to recover before experimental procedures began.\nIn all experiments, stylus was removed from the guide cannula, and a 28-gauge injection cannula was inserted through the guide cannula, extending 1.0 mm beyond its tip into the ventral hippocampus. Drugs were infused slowly via the injection cannula, connected by PE20 tubing to Hamilton microsyringes driven by a microinfusion pump. Infusions were of 0.25 μl per hemisphere at a rate of 0.32 μl/min. Following drug infusion, injecting cannulaes were left in place for 10 minutes to allow drug diffusion away from the cannula tip. At the end of all experiments, animals were anesthetized as above and perfused intracardially with saline, 4% buffered paraformaldehyde. Brains were extracted and postfixed in 30% sucrose until density equaled that of sucrose. […] Animals with histological lesions beyond the size of the cannula tip and guide cannula diameter were excluded from the analysis.\nF. Behavioral procedures: To assess the effects of TAT-Gap19 on locomotor activity, entire body movements were measured in the openfield and counted as the number of crossings (transitions) between virtual square subdivisions of 10 cm^2 measured offline from digital video recordings. Measures of anxiety included thigmotaxis, rearing activity in the openfield. Transitions between light and dark compartments, number of times the animal peaked from the dark compartment into the lit compartment, and time spent in the lit compartment were measured in the Dark/light box paradigm^(62, 63). G. Data Analysis: Data were expressed as Mean+SD. […]"}, "rats": {"tested_on": "rats", "test": "Forced swim test (FST)", "assay_type": "in vivo, rat", "conditions": "intravenous, 10 μM in the blood stream, 10 minutes before the test", "experimental": "A. Methods: To assess depressive-like symptoms the forced swim test (FST) was employed, which was similar to that described elsewhere^(65). On training, rats were individually placed in a transparent Plexiglas cylinder (30 cm diameter×60 cm height) filled with water at 25±2° C. for 15 minutes. 24 h later, the animals were placed again in the cylinder for 5 minutes as described before. After initial vigorous swimming activity, swimming attempts normally cease and the animal adopts a characteristic immobile floating posture. Rats were scored for time to reach immobility and total immobility time by a trained observer from offline video recordings. Immobility was defined as the cessation of limb movements. B. Drugs: Cacotheline was dissolved to a final concentration of 10 μM into the blood stream, assuming circulating blood as 7% of body weight. Cacotheline was injected into the caudal vein under 4% isofluorane gas anesthesia 10 minutes before the behavioural test. In a control group of rats sterile saline injection of equal volume was injected. C. […] D. Discussion: A compound capable of increasing Cx43 hemichannel activity was able to decrease immobility in the FST, indication antidepressant effects. […] This implies that Cx43 modulators are useful to treat depression and other mood disorders."}, "Cx43 gap junctions": {"biological_target": "T1, Cx43 gap junctions (Homo sapiens, UniProt P17302)", "T1 construct": "expressed in transfected cells; host or cells: HeLa", "T1 sequence (P17302 whole entry)": "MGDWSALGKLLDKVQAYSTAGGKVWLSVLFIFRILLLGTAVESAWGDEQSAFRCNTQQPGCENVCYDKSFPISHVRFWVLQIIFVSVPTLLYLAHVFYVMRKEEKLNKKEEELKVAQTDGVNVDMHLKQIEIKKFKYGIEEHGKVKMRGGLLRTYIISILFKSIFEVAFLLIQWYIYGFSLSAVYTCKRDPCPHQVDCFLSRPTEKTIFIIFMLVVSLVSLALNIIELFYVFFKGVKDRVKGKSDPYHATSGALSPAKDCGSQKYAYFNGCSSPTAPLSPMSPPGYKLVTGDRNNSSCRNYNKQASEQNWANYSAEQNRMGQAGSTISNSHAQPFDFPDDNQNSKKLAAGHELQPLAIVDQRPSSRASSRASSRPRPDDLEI", "test": "Scrape-loading/dye transfer in Cx43 transfected Hela cells", "assay_type": "cell-based", "experimental": "Gap junction permeability was determined at room temperature using the scrape-loading/dye transfer (SL/DT) technique, Hela cells were incubated with Carboxy-fluorescin (1 mg/ml) in the same Ca2+ free HEPES-buffered salt solution as above, then the test compound was added, followed by scrape-loading, which was performed with a razor blade. After 3 minutes the cells are washed with HEPES-buffered salt solution and mounted in Fluoromount and examined by epifluorescence.\nA. Animals: All procedures involving animals were in accordance to NIH guidelines and with approval of the bioethical committee of the Universidad Andrés Bello. Sprague Dowley rats (˜60 d old, ˜250 g) were caged individually at 22° C., 12/12 h light/dark cycle. The rats remained in their home box throughout the study, and were removed only briefly for drug microinfusions. B. Drugs: For intra hippocampal microinjections Gap19 ([…] (SEQ ID NO: 3), LifeTein, South Plainfield, N.J., USA, >90% purity) was dissolved in PBS to yield a final solution of 100 μM and cacotheline was dissolved in sterile saline to a final concentration of 10 μM. For intravenous injections, cacotheline was dissolved to a final concentration of 10 μM in the blood stream, assuming circulating blood as 7% of body weight. Cacotheline was injected into the caudal vein under 4% isofluorane gas anesthesia. In a control group of rats sterile saline injection of equal volume was injected. C. Dye uptake: Gap junction permeability was determined at room temperature using the scrape-loading/dye transfer (SL/DT) technique, Hela cells were incubated with Carboxy-fluorescin (1 mg/ml) in the same Ca2+ free HEPES-buffered salt solution as above, then the test compound was added, followed byscrape-loading, which was performed with a razor blade. After 3 minutes the cells are washed with HEPES-buffered salt solution and mounted in Fluoromount and examined by epifluorescence. […]"}, "Cx30 hemichannels": {"biological_target": "T2, Cx30 hemichannels (Homo sapiens, UniProt O95452)", "T2 construct": "expressed in transfected cells; host or cells: HeLa", "T2 sequence (O95452 whole entry)": "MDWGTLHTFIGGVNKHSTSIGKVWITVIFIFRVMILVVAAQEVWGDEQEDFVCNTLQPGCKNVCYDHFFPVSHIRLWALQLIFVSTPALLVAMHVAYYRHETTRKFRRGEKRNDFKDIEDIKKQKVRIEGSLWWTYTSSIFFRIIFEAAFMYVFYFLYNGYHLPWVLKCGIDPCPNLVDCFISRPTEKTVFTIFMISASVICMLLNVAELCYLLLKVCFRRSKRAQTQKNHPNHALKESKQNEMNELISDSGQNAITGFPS", "test": "EthBr dye uptake in Cx30 transfected Hela cells", "assay_type": "cell-based", "experimental": "For visualization of dye uptake by captured images, Cx30 transfected Hela cells were exposed to 25 uM EthBr (Invitrogen, Eugene, Oreg.) for 5 min at room temperature. Then, cells were incubated with either HEPES-buffered salt solution containing 140 mM NaCl, 4 mM KCl, 1 mM CaCl2, 1 mM MgCl2, 5 mM glucose, […] or in calcium free HEPES-buffered salt solution (140 mM NaCl, 4 mM KCl, 5 mM glucose, […]). Then the test compound was added to both solutions followed by EthBr dissolved to a final 25 uM concentration. Cells are washed and mounted in Fluoromount and examined by epifluorescence."}, "Cx30 gap junctions": {"tested_on": "Cx30 gap junctions", "test": "Scrape-loading/dye transfer, Cx30 gap junctions in Hela cells", "assay_type": "cell-based", "experimental": "Gap junction permeability was determined at room temperature using the scrape-loading/dye transfer (SL/DT) technique, Hela cells were incubated with Carboxy-fluorescin (1 mg/ml) in the same Ca2+ free HEPES-buffered salt solution as above. Then the test compound was added. Scrape-loading was then performed with a razor blade. After 3 minutes the cells are washed with HEPES-buffered salt solution and mounted in Fluoromount and examined by epifluorescence."}, "[3]": {"conditions": "microinjected into ventral hippocampus"}, "[4]": {"conditions": "microinjected into ventral hippocampus, peptides 100 μM"}}, "note": "Entries after “also recorded” stand apart in the source; their conditions may differ. Read-outs that look alike come from different tables or passages of the source. No end group written: not given here.", "data": [{"molecule": "O=C(O)C[C@@H]1OCC=C2CN3CC[C@]45C6=CC(=O)C(=O)C([N+](=O)[O-])=C6N[C@H]4[C@H]1[C@H]2C[C@H]35", "note": "[Cacotheline, 2,3-Dihydro-4-nitro-2,3-dioxo-9,10-secostrychnidin-10-oic acid]", "values": [{"measurement": "freezing to conditioned context 24 h after training", "setting": "Sprague Dowley rats [1]", "value": "increased freezing"}, {"measurement": "freezing to conditioned context 24 h after training", "setting": "Sprague Dowley rats [1]; listed as cacotheline", "value": "increase freezing"}, {"measurement": "locomotion (transitions) in the openfield", "setting": "Sprague Dowley rats [2]; intravenous, 10 μM in the blood stream", "value": "increase in locomotion at the openfield; also recorded: increase in total locomotion"}, {"measurement": "effect on anxiety", "setting": "Sprague Dowley rats [2]; [3]", "value": "anxiolytic effects"}, {"measurement": "time in the center of the openfield (thigmotaxis)", "setting": "Sprague Dowley rats [2]; [4]", "value": "significant increase in the time spent in the center of the openfield"}, {"measurement": "time in the center of the openfield (thigmotaxis)", "setting": "Sprague Dowley rats [2]; microinjected into ventral hippocampus, peptides 100 μM, listed as cacotheline", "value": "increase in time at the center of the openfield"}, {"measurement": "immobility in the FST", "setting": "rats", "value": "significant decrease in immobility time"}, {"measurement": "Cx43 gap junctional coupling", "setting": "Cx43 gap junctions", "value": "had no effects on Cx43 gap junctional coupling; also recorded: without affecting Cx43 gap junctions"}, {"measurement": "Cx43 gap junctional coupling", "setting": "Cx43 gap junctions; listed as cacotheline", "value": "no effects on gap junctional coupling"}]}, {"molecule": "WRQAAFVDSY [Pnx1]", "values": [{"measurement": "effect on anxiety", "setting": "Sprague Dowley rats [2]; [3]", "value": "anxiolytic effects"}, {"measurement": "time in the center of the openfield (thigmotaxis)", "setting": "Sprague Dowley rats [2]; [4]", "value": "increase in time at the center of the openfield; also recorded: increasing significantly the time in the center of the openfield"}, {"measurement": "locomotion (transitions) in the openfield", "setting": "Sprague Dowley rats [2]; [4]", "value": "increasing significantly"}]}, {"molecule": "YGRKKRRQRRRCYDHFFPVSHIR [TAT-Cx30]", "values": [{"measurement": "Cx30 hemichannel activity", "setting": "Cx30 hemichannels", "value": "increase in Cx30 hemichannel activity"}, {"measurement": "effect on anxiety", "setting": "Sprague Dowley rats [2]; [3]", "value": "anxiolytic effects"}, {"measurement": "time in the center of the openfield (thigmotaxis)", "setting": "Sprague Dowley rats [2]; [4]", "value": "increase in time at the center of the openfield"}, {"measurement": "locomotion (transitions) in the openfield", "setting": "Sprague Dowley rats [2]; [4]", "value": "increase in locomotion at the openfield"}, {"measurement": "Cx43 gap junctional coupling", "setting": "Cx43 gap junctions", "value": "had no effects on Cx43 gap junctional coupling"}]}, {"molecule": "YGRKKRRQRRRDAPALYSNLSKKRG [TAT-Cx30L4]", "values": [{"measurement": "Cx30 hemichannel activity", "setting": "Cx30 hemichannels", "value": "increase hemichannel activity"}, {"measurement": "Cx30 gap junctional communication", "setting": "Cx30 gap junctions", "value": "unaffected"}, {"measurement": "effect on anxiety", "setting": "Sprague Dowley rats [2]; [3]", "value": "anxiolytic effects"}, {"measurement": "time in the center of the openfield (thigmotaxis)", "setting": "Sprague Dowley rats [2]; [4]", "value": "statistically significant increase in the time the animals spent in the center"}, {"measurement": "locomotion (transitions) in the openfield", "setting": "Sprague Dowley rats [2]; [4]", "value": "tendency to increase locomotion"}]}, {"molecule": "YGRKKRRQRRRRDLDLRDGP [TAT-Pnx1L5, pannexin 1 mimetic peptide]", "values": [{"measurement": "effect on anxiety", "setting": "Sprague Dowley rats [2]; [3]", "value": "anxiolytic effects"}, {"measurement": "time in the center of the openfield (thigmotaxis)", "setting": "Sprague Dowley rats [2]; [4]", "value": "increasing significantly the time in the center of the openfield"}, {"measurement": "locomotion (transitions) in the openfield", "setting": "Sprague Dowley rats [2]; [4]", "value": "increased locomotion at the openfield"}, {"measurement": "locomotion (transitions) in the openfield", "setting": "Sprague Dowley rats [2]; microinjected into ventral hippocampus, peptides 100 μM, listed as Pnx1Li", "value": "increasing significantly"}]}]}
